Assay [1] concerns the target CDK12/CycK (Homo sapiens, UniProt Q9NYV4). Nature of the assay: CDK12/CycK high ATP kinase assay (TR-FRET, 2 mM ATP). The format is biochemical. The note with it: 2 mM ATP (high ATP); median; read-out: CDK12/CyclinK, 2 mM ATP (high ATP), IC50-[mol/l] (median). In a few lines: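 Read-out is TR-FRET (Eu-anti-rabbit IgG, anti-phospho-c-Myc Ser62 antibody, streptavidin-XL665) after EDTA stop. Reaction ran 60 min at 22 °C using 1 µM biotin-peptide and high ATP (2 mM) with roughly 0.75 nM recombinant CDK12/CycK, after 15 min compound pre-binding; normalised emission ratios yield IC50.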
A general note: TR-FRET usually uses a lanthanide donor and a delayed reading to cut background.

Assay [2] has as its target T1, CDK9/CycT1 (Homo sapiens, UniProt P50750).
T1 construct: Recombinant full-length His-tagged human CDK9 and CycT1; purchased Life Technologies PV4131; host or cells: insect cells
Nature of the assay: CDK9/CycT1 high ATP kinase assay (TR-FRET, 2 mM ATP). It counts as biochemical. The note with it: 2 mM ATP (high ATP); median; read-out: CDK9/CyclinT1, 2 mM ATP (high ATP), IC50 (median). In a few lines: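 Full-length His-tagged human CDK9/CycT1 (insect cell, ~0.5 μg/mL) preincubated 15 min at 22 °C with compound in Tris pH 8.0, MgCl2, DTT buffer before reaction with biotinylated peptide substrate at high ATP (2 mM).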

CDK12/CycK, sequence (Q9NYV4 with tags, fused parts or gaps): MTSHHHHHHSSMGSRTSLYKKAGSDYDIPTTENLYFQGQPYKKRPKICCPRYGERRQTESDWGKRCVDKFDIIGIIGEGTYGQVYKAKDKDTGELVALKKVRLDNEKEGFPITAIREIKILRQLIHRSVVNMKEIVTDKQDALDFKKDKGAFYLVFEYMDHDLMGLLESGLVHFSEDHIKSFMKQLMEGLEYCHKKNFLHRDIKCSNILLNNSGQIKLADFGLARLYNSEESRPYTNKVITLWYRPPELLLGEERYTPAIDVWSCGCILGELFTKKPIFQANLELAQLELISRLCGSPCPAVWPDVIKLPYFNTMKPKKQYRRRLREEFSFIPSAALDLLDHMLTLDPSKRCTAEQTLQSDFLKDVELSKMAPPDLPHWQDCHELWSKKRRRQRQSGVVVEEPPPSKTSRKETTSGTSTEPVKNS
CDK12/CycK, sequence (O75909 1-300 partner limits assumed): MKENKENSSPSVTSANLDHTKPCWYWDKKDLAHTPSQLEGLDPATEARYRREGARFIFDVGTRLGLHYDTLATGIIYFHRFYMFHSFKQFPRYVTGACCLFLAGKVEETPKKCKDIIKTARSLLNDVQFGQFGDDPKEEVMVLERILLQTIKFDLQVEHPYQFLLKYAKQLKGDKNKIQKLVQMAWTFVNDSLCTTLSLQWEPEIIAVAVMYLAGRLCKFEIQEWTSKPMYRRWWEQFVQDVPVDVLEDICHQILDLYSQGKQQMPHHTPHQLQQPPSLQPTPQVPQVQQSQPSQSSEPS
T1 sequence (P50750 whole entry): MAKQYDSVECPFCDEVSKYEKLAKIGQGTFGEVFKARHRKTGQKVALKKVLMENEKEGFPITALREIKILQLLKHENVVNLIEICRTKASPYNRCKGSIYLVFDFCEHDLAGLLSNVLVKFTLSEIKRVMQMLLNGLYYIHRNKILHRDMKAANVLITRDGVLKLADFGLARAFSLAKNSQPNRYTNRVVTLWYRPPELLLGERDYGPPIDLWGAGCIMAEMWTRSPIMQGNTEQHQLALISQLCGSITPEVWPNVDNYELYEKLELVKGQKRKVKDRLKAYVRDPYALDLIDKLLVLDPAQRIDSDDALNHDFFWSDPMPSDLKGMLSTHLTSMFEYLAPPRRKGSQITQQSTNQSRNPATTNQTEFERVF
T1 sequence (O60563 whole entry partner): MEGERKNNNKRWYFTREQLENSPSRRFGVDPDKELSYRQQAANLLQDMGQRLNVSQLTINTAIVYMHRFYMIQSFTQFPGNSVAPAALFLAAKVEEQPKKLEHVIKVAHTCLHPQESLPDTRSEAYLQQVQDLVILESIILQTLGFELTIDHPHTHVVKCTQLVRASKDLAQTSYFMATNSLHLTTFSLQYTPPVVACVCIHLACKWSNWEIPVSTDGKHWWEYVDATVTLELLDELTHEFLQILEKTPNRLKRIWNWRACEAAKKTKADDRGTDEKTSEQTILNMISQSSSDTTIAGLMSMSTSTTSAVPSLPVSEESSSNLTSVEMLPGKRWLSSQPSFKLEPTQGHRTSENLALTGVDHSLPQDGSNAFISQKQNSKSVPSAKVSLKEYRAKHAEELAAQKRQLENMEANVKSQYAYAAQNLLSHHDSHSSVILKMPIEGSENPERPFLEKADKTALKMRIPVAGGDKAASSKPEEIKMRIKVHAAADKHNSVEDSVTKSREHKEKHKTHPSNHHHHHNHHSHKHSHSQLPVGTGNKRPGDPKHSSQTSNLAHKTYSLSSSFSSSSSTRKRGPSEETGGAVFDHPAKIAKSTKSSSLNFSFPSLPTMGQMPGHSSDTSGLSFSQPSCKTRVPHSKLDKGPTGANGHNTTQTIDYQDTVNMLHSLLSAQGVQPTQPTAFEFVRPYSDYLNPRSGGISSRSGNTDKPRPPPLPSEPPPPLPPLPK

Turning to `CN(C)[C@H]1CCN(c2nc(NCc3nc4ccccc4[nH]3)n3ncc(Br)c3n2)C1` [Example 177, N-[(1H-benzimidazol-2-yl)methyl]-8-bromo-2-[(3S)-3-(dimethylamino)pyrrolidin-1-yl]pyrazolo[1,5-a][1,3,5]triazin-4-amine], the IC50 in assay [1] and in assay [2] was > 20 µM throughout.
Take `CN(CC(C)(C)O)c1nc(NCc2nc3ccccc3[nH]2)n2ncc(Br)c2n1` [Example 238, 1-[(4-{[(1H-benzimidazol-2-yl)methyl]amino}-8-bromopyrazolo[1,5-a][1,3,5]triazin-2-yl)(methyl)amino]-2-methylpropan-2-ol]: the IC50 in assay [1] was 1.79 µM; in assay [2], > 18.7 µM.
The corresponding values for `Cc1ccc2[nH]c(CNc3nc(N4C[C@@H](C)N[C@@H](C)C4)nc4c(C5CC5)cnn34)nc2c1` [Example 194, 8-cyclopropyl-2-[(3R,5S)-3,5-dimethylpiperazin-1-yl]-N-[(5-methyl-1H-benzimidazol-2-yl)methyl]pyrazolo[1,5-a][1,3,5]triazin-4-amine] are 3.7 µM and > 20 µM.
The corresponding values for `CN1CC2CCC1CN2c1nc(NCc2nc3ccccc3[nH]2)n2ncc(Br)c2n1` (stereo not shown) [Example 221, N-(1H-benzimidazol-2-ylmethyl)-8-bromo-2-(5-methyl-2,5-diazabicyclo[2.2.2]octan-2-yl)pyrazolo[1,5-a][1,3,5]triazin-4-amine] are 7.98 µM and > 20 µM.
Turning to `FC(F)(F)c1cnn2c(NCc3nc4ccccc4[nH]3)nc(N3CCOCC3)nc12` [Example 241, N-[(1H-benzimidazol-2-yl)methyl]-2-(morpholin-4-yl)-8-(trifluoromethyl) pyrazolo[1,5-a][1,3,5]triazin-4-amine], the values for the IC50 in assay [1] and in assay [2] were 0.805 µM and > 20 µM, respectively.
The corresponding values for `Fc1ccc2[nH]c(CNc3nc(N4CCOCC4)nc4c(C5CC5)cnn34)nc2c1` [Example 181, 8-cyclopropyl-N-[(5-fluoro-1H-benzimidazol-2-yl)methyl]-2-(morpholin-4-yl)pyrazolo[1,5-a][1,3,5]triazin-4-amine] are 1.91 µM and > 20 µM.
In the case of `Cc1ccc2[nH]c(CNc3nc(N4C[C@@H](C)N[C@@H](C)C4)nc4c(Br)cnn34)nc2c1` [Example 209, 8-bromo-2-[(3R,5S)-3,5-dimethylpiperazin-1-yl]-N-[(5-methyl-1H-benzimidazol-2-yl)methyl]pyrazolo[1,5-a][1,3,5]triazin-4-amine], the IC50 in assay [1] is 6.8 µM; in assay [2], > 20 µM.
Turning to `CN1CCCC2CN(c3nc(NCc4nc5ccccc5[nH]4)n4ncc(Br)c4n3)CC21` (stereo not shown) [Example 231, N-[(1H-benzimidazol-2-yl)methyl]-8-bromo-2-(1-methyloctahydro-6H-pyrrolo[3,4-b]pyridin-6-yl)pyrazolo[1,5-a][1,3,5]triazin-4-amine], the IC50 in assay [1] and in assay [2] was > 20 µM each time.
In the case of `Brc1cnn2c(NCc3nc4ccccc4[nH]3)nc(NCCN3CCCC3)nc12` [Example 235, N4-(1H-benzimidazol-2-ylmethyl)-8-bromo-N2-(2-pyrrolidin-1-ylethyl)pyrazolo[1,5-a][1,3,5]triazine-2,4-diamine], the IC50 in assay [1] and in assay [2] was > 20 µM in each case.
Take `OCCNc1nc(NCc2nc3ccccc3[nH]2)n2ncc(Br)c2n1` [Example 228, 2-[(4-{[(1H-benzimidazol-2-yl)methyl]amino}-8-bromopyrazolo[1,5-a][1,3,5]triazin-2-yl)amino]ethan-1-ol]: the IC50 in assay [1] and in assay [2] was > 20 µM throughout.
For the molecule `Cc1ccc2[nH]c(CNc3nc(N4CCOCC4)nc4c(C5CC5)cnn34)nc2c1` [Example 193, 8-cyclopropyl-N-[(5-methyl-1H-benzimidazol-2-yl)methyl]-2-(morpholin-4-yl)pyrazolo[1,5-a][1,3,5]triazin-4-amine], the IC50 in assay [1] is 1.75 µM; in assay [2], > 20 µM.
The like results for `Cc1cc(-c2cnn3c(NCc4nc5ccccc5[nH]4)nc(N4CCN(C)CC4)nc23)ccn1` [Example 243, N-[(1H-benzimidazol-2-yl)methyl]-2-(4-methylpiperazin-1-yl)-8-(2-methylpyridin-4-yl)pyrazolo[1,5-a][1,3,5]triazin-4-amine] were, in that order, > 20 µM and > 20 µM.
As to `COC(C)(C)CNc1nc(NCc2nc3ccccc3[nH]2)n2ncc(Br)c2n1` [Example 236, N4-(1H-benzimidazol-2-ylmethyl)-8-bromo-N2-(2-methoxy-2-methyl-propyl)pyrazolo[1,5-a][1,3,5]triazine-2,4-diamine], the values for the IC50 in assay [1] and in assay [2] were > 17.9 µM and > 20 µM, respectively.
Take `Brc1cnn2c(NCc3nc4ccccc4[nH]3)nc(N3C[C@H]4CCCN[C@H]4C3)nc12` [Example 199, N-[(1H-benzimidazol-2-yl)methyl]-8-bromo-2-[(4aR, 7aR)-octahydro-6H-pyrrolo[3,4-b]pyridin-6-yl]pyrazolo[1,5-a][1,3,5]triazin-4-amine]: the IC50 was 14.8 µM in assay [1] and > 20 µM in assay [2].
The corresponding values for `OC[C@@H]1CCCCN1c1nc(NCc2nc3c(F)c(F)ccc3[nH]2)n2ncc(C3CC3)c2n1` [Example 184, [(2S)-1-(8-cyclopropyl-4-{[(4,5-difluoro-1H-benzimidazol-2-yl)methyl]amino}pyrazolo[1,5-a][1,3,5]triazin-2-yl)piperidin-2-yl]methanol] are 0.0132 µM and 1.64 µM.
Take `Cc1ccc2[nH]c(CNc3nc(N4C[C@H]5C[C@@H]4CO5)nc4c(Br)cnn34)nc2c1` [Example 192, 8-bromo-N-[(5-methyl-1H-benzimidazol-2-yl)methyl]-2-[(1R,4R)-2-oxa-5-azabicyclo[2.2.1]heptan-5-yl]pyrazolo[1,5-a][1,3,5]triazin-4-amine]: the IC50 in assay [1] was 8.5 µM; in assay [2] it was > 20 µM.
The corresponding values for `CN1CCN(c2nc(NCc3nc4ccccc4[nH]3)n3ncc(Br)c3n2)CC1` [Example 18, N-[(1H-benzimidazol-2-yl)methyl]-8-bromo-2-(4-methylpiperazin-1-yl)pyrazolo[1,5-a][1,3,5]triazin-4-amine] are > 15.7 µM and > 20 µM.
The like results for `Fc1ccc2[nH]c(CNc3nc(N4C[C@@H]5CCCN[C@@H]5C4)nc4c(C5CC5)cnn34)nc2c1` [Example 180, 8-cyclopropyl-N-[(5-fluoro-1H-benzimidazol-2-yl)methyl]-2-[(4aS, 7aS)-octahydro-6H-pyrrolo[3,4-b]pyridin-6-yl]pyrazolo[1,5-a][1,3,5]triazin-4-amine] were, in that order, 17.3 µM and > 20 µM.
The like results for `Fc1ccc2[nH]c(CNc3nc(N4CCOCC4)nc4c(C5CC5)cnn34)nc2c1F` [Example 172, 8-cyclopropyl-N-[(4,5-difluoro-1H-benzimidazol-2-yl)methyl]-2-(morpholin-4-yl)pyrazolo[1,5-a][1,3,5]triazin-4-amine] were, in that order, 0.641 µM and > 20 µM.
As to `Fc1cccc2[nH]c(CNc3nc(N4CCNCC4)nc4c(C5CC5)cnn34)nc12` [Example 182, 8-cyclopropyl-N-[(4-fluoro-1H-benzimidazol-2-yl)methyl]-2-(piperazin-1-yl)pyrazolo[1,5-a][1,3,5]triazin-4-amine], the IC50 in assay [1] was 2.04 µM; in assay [2] it was > 20 µM.

The record behind these values is patent publication US20230117034A1, “PYRAZOLOTRIAZINES” (Bayer Aktiengesellschaft, priority 2019, published 2023).
